# Results taken from patent US10674727B2, “Substituted oxadiazoles for combating phytopathogenic fungi” (priority 2015, dated 2020).
# Tested on: Phakopsora pachyrhizi
# Assay: Protective control of soy bean rust on soy beans (glass house trial)
# Type: in vivo
# Conditions: 16 ppm active compound, sprayed 2 days before inoculation, soy bean seedlings; untreated plants 90%
# Method: The spray solutions were prepared in several steps: The stock solution were prepared: a mixture of acetone and/or dimethylsulfoxide and the wetting agent/emulsifier Wettol, which is based on ethoxylated alkylphenoles, in a relation (volume) solvent-emulsifier of 99 to 1 was added to 25 mg of the compound to give a total of 5 ml. Water was then added to total volume of 100 ml. This stock solution was diluted with the described solvent-emulsifier-water mixture to the given concentration.
# II.2) Protective control of soy bean rust on soy beans caused by Phakopsora pachyrhizi Leaves of pot-grown soy bean seedlings were sprayed to run-off with an aqueous suspension, containing the concentration of active ingredient or their mixture as described below. The plants were allowed to air-dry. The trial plants were cultivated for 2 day in a greenhouse chamber at 23 to 27° C. and a relative humidity between 60 and 80%. Then the plants were inoculated with spores of Phakopsora pachyrhizi. To ensure the success the artificial inoculation, the plants were transferred to a humid chamber with a relative humidity of about 95% and 20 to 24° C. for 24 h. The trial plants were cultivated for fourteen days in a greenhouse chamber at 23 to 27° C. and a relative humidity between 60 and 80%. The extent of fungal attack on the leaves was visually assessed as % diseased leaf area.
row,Compound,diseased leaf area
1,CCN(Cc1ccc(-c2noc(C(F)(F)F)n2)cc1)C(=O)C(C)C [Ex-24],0%
2,CCCC(=O)N(CC)Cc1ccc(-c2noc(C(F)(F)F)n2)cc1 [Ex-25],0%
3,CCC(=O)N(CC)Cc1ccc(-c2noc(C(F)(F)F)n2)cc1 [Ex-26],0%
4,CCN(Cc1ccc(-c2noc(C(F)(F)F)n2)cc1)C(=O)C(C)(C)C [Ex-27],0%

# Same assay, conditions: 32 ppm active compound, sprayed 2 days before inoculation, soy bean seedlings; untreated plants 90%
row,Compound,diseased leaf area
1,CNC(c1ccc(-c2noc(C(F)(F)F)n2)cc1)C(F)(F)F (stereo not shown) [Ex-1],0%
2,C=CCN(Cc1ccc(-c2noc(C(F)(F)F)n2)cc1)C(C)=O [Ex-4],0%
3,C=CCN(Cc1ccc(-c2noc(C(F)(F)F)n2)cc1)C(=O)CC [Ex-5],0%
4,C=CCN(Cc1ccc(-c2noc(C(F)(F)F)n2)cc1)C(=O)C(C)(C)C [Ex-6],0%
5,CCC(=O)N(C)Cc1ccc(-c2noc(C(F)(F)F)n2)cc1 [Ex-7],0%
6,CN(Cc1ccc(-c2noc(C(F)(F)F)n2)cc1)C(=O)C(C)(C)C [Ex-8],0%
7,CCC(=O)N(Cc1ccc(-c2noc(C(F)(F)F)n2)cc1)C(C)C [Ex-9],0%
8,CC(C)N(Cc1ccc(-c2noc(C(F)(F)F)n2)cc1)C(=O)C(C)(C)C [Ex-10],0%
9,CCC(CC)C(=O)N(C)Cc1ccc(-c2noc(C(F)(F)F)n2)cc1 [Ex-11],0%
10,CCCC(=O)N(C)Cc1ccc(-c2noc(C(F)(F)F)n2)cc1 [Ex-12],0%
11,"CC(C)C(=O)N(C)Cc1ccc(-c2noc(C(F)(F)F)n2)cc1 [Ex-13, N,2-dimethyl-N[[4-[5-(trifluoromethyl)-1,2,4-oxadiazol-3-yl]phenyl]methyl]propanamide]",0%
12,CCC(C)C(=O)N(C)Cc1ccc(-c2noc(C(F)(F)F)n2)cc1 (stereo not shown) [Ex-14],0%
13,CC(=O)NCc1ccc(-c2noc(C(F)(F)F)n2)cc1 [Ex-15],0%
14,"CC(=O)N(C)C(C)c1ccc(-c2noc(C(F)(F)F)n2)cc1 (stereo not shown) [Ex-16, N-methyl-N-[1-[4-[5-(trifluoromethyl)-1,2,4-oxadiazol-3-yl]phenyl]ethyl]acetamide]",0%
15,CC(c1ccc(-c2noc(C(F)(F)F)n2)cc1)N(C)C(=O)C(C)(C)C (stereo not shown) [Ex-17],0%
16,CCC(=O)N(C)C(C)c1ccc(-c2noc(C(F)(F)F)n2)cc1 (stereo not shown) [Ex-18],0%
17,CCCC(=O)N(C)C(C)c1ccc(-c2noc(C(F)(F)F)n2)cc1 (stereo not shown) [Ex-19],0%
18,CCC(CC)C(=O)N(C)C(C)c1ccc(-c2noc(C(F)(F)F)n2)cc1 (stereo not shown) [Ex-20],0%
19,CC(C)C(=O)N(C)C(C)c1ccc(-c2noc(C(F)(F)F)n2)cc1 (stereo not shown) [Ex-21],0%
20,CCC(C)C(=O)N(C)C(C)c1ccc(-c2noc(C(F)(F)F)n2)cc1 (stereo not shown) [Ex-22],0%
21,CC(=O)NC(c1ccc(-c2noc(C(F)(F)F)n2)cc1)C(F)(F)F (stereo not shown) [Ex-23],0%
22,CCC(C)C(=O)N(CC)Cc1ccc(-c2noc(C(F)(F)F)n2)cc1 (stereo not shown) [Ex-28],0%
23,CC(C)CC1CCN(Cc2ccc(-c3noc(C(F)(F)F)n3)cc2)C1=O (stereo not shown) [Ex-29],0%
24,"O=C1CCCN1Cc1ccc(-c2noc(C(F)(F)F)n2)cc1 [Ex-30, 1-[[4-[5-(trifluoromethyl)-1,2,4-oxadiazol-3-yl]phenyl]methyl] pyrrolidin-2-one]",0%
25,CC1(C)CC(=O)N(Cc2ccc(-c3noc(C(F)(F)F)n3)cc2)C1 [Ex-31],0%
26,CC1CCN(Cc2ccc(-c3noc(C(F)(F)F)n3)cc2)C1=O (stereo not shown) [Ex-32],0%
27,CC1(C)CCC(=O)N(Cc2ccc(-c3noc(C(F)(F)F)n3)cc2)C1 [Ex-33],0%
